One data set relates to B16 melanoma cells. Nature of the data set: B16 melanoma allograft in C57BL/6 mice. The class given is in vivo. Particulars: 40 mg/kg daily subcutaneous injections, 21 days. Here is the method: In the example, C57BL/6 mice were subcutaneously injected with B16 melanoma cells. Tumor cells were allowed to develop for one week, after that mice were treated with daily subcutaneous injections of vehicle or DW192 (40 mg/kg) for 21 days. FIG. 12A is a plot showing the tumor growth curves.

Data set [1] relates to Jurkat cells. The data set can be described thus: Dose-dependent CCK8 viability assay. It counts as cell-based. The conditions noted are these: Homo sapiens, 48 hours. On the procedure:
(§1) In this example, dose-dependent CCK8 Viability assay was performed to determine the IC50 (the concentration of compound to achieve 50% viability) of several of the hit compounds identified from Example 2. A variety of cell lines were used: • Jurkat cells: Human leukemia • A549 cells: Human NSCLC • KP-1 cells: Mouse NSCLC with KRAS and P53 mutations • MCF-7 cells: Human breast cancer
Method for Suspension Cells (Jurkat Cells)
5000 cells/90 uL were seeded in 96-well plates. 10 uL of compound (10×) in various concentrations was added to each well in 6 replicates. The following controls were prepared.
Blank control: 10 uL 1% DMSO in media with no cells per well.
Positive control: 10 uL of 100 uM 5-flurouracil (10×) per well.
Negative control: 10 uL of 1% DMSO in media (10×) per well.
Note: Each 96-well plate can test 1 compound in 7 concentrations with a complete set of controls (in 6 replicates)
(§2) Cells were incubated at 37° C.+5% CO2 for 46 hours. 10 uL of CCK8 solution was added to each well. Cells were incubated at 37° C.+5% CO2 for 2 hours. Absorbance at 450 nm was measured using a multiplate reader.
Viability was calculated using this equation: […]
For orientation: Tetrazolium assays rely on reduction of a dye to a coloured formazan, in cell work by metabolically active cells.

Data set [2] deals with A549 cells. The data set can be described thus: Single-dose CCK-8 cell viability screening (adherent cells). It counts as cell-based, human. The conditions noted are these: A549 cells, 50 uM, 48 h, CCK-8.
Assay in data set [3]: as above
The class given is cell-based, human. The conditions noted are these: Homo sapiens, A549, 48 h, average of A549 and Jurkat % viability, 50 uM, 48 h.

Data set [4] deals with A549 cells. The data set can be described thus: Dose-dependent CCK8 viability assay. It counts as cell-based, human. Here is the method: as §1
(§3) Method for Adherent Cells (A549, MCF-7 and KP-1 Cells)
(§4) 5000 cells/100 uL were seeded in 96-well plates and incubate at 37° C.+5% CO2 overnight. Media were replaced with 100 uL of compound per well in 6 replicates in a series of 2-fold dilutions. The following controls were prepared.
(§5) Blank control: 100 uL 0.1% DMSO in media with no cells per well.
(§6) Positive control: 100 uL of 10 uM 5-flurouracil per well.
(§7) Negative control: 100 uL of 0.1% DMSO in media per well.
(§8) Each 96-well plate included 1 compound in 7 concentrations and a complete set of controls (in 6 replicates).
as §2
(§9) Viability was calculated using the equation: […]

For another data set, the system named is NCI-60 cell line panel. Nature of the data set: NCI-60 Human Tumor Cell Lines Screen, one-dose screen (SRB). It counts as cell-based. Particulars: 48 hours. An excerpt: In this example, the cytotoxic effect of DW192 was assess via the NCI-60 Human Tumor Cell Lines Screen, provided by the Developmental Therapeutics Program (DTP) of the National Cancer Institute (NCI) in the United States. This screening helps to identify and characterize the cytotoxic effect of compounds on 60 different human cancer cell lines, including leukemia, melanoma, and cancers of the lung, colon, brain, ovary, breast, prostate and kidneys. The screening comprised of two assays: one-dose screen and five-dose screen. In one-dose screen, 10 μM of DW192 was tested for 48 hours. In five-dose screen, four, 10-fold of ½ log serial dilutions were tested for 48 hours.
Method (Extracted from the NCI-60 Website)
Cells were seeded into 96-well plates in 100 uL at plating densities ranging from 5,000 to 40,000 cells/well depending on the doubling time of individual cell lines. Plates were incubated at 37° C.+5% CO2+95% air+100% relative humidity for 24 hours before adding compounds. Two plates of each cell line were fixed in situ with TCA, to represent a measurement of the cell population for each cell line at the time of drug addition (Tz). 100 uL of compounds in four, 10-fold of ½ log serial dilutions were added to the wells already containing 100 uL of medium. Plates were incubated at 37° C.+5% CO2+95% air+100% relative humidity for an additional 48 hours.
To terminate the assay, adherent cells were fixed in situ by the gentle addition of 50 uL of cold 50% (w/v) TCA (final concentration, 10% TCA) and incubated for 60 min at 4° C. For suspension cells, 50 uL of 80% TCA (final concentration, 16% TCA) was used.
Supernatant was discarded, and the plates were wash five times with tap water and air dried. […]
Remaining stained cells were solubilized with 10 mM trizma base. Absorbance at 515 nm was measured.
Percentage growth was calculated using the following equations:
[formula] [formula] • where Tz=absorbance at time zero, C=absorbance of control growth, Ti=absorbance of test growth in the presence of drug at the five concentration levels.

In data set [5] the test system is Jurkat cells. Nature of the data set: Single-dose CCK-8 cell viability screening (suspension cells). The class given is cell-based, human. Particulars: Jurkat cells, 50 uM.
The subject of another data set is KP-1 cells. Nature of the data set: Dose-dependent CCK8 viability assay. The class given is cell-based. Particulars: Mus musculus, 48 hours. On the procedure:
as §1, §3, §4, §5, §6, §7, §8, §2, §9

Another data set relates to MCF-7 cells. The data set can be described thus: Dose-dependent CCK8 viability assay. Particulars: Homo sapiens, MCF7, 48 hours. The class given is cell-based. On the procedure:
as §1, §3, §4, §5, §6, §7, §8, §2, §9

As to `CC(C)(C)[C@]1(O)C[C@@H]2OC(=O)C[C@@]23C(=O)O[C@@H]2N(CC4C5CC6CC(C5)CC4C6)C(=O)[C@H](OC(=O)c4ccccc4)[C@]213` (stereo partly drawn) [DW192, (3aS,5aS,8R,8aS,9R,10aS)-6-(((1S,5R,7S)-adamantan-2-yl)methyl)-9-(tert-butyl)-9-hydroxy-2,4,7-trioxooctahydro-4H,9H-furo [3″,2″:2′,3′]cyclopenta[1′,2′:3,4]furo[2,3-b]pyrrol-8-yl benzoate], in the data set with B16 melanoma cells, the “tumor growth and size” value is “significantly reduced the growth and size of melanoma tumors”. Further, the IC50 (in general, the point on the concentration scale where inhibition reaches its midpoint) in the data set with Jurkat cells [1] is 21.9 µM; in the data set on A549 cells [4] (48 hours) it was 16.4 µM; in the data set with A549 cells [4] (Homo sapiens, A549, 48 h), 21.9 µM; with KP-1 cells it was 15.8 µM; in the data set on MCF-7 cells, 19.6 µM. Also, in the data set with A549 cells [2], the “% Viability (50 uM, 48 h) A549” value is listed as 53.19%. Also, the viability (usually the share of living cells, or the viability signal relative to a control) at 50 µM in the data set with A549 cells [2] (Homo sapiens, A549, 48 h, read-out: % Viability (50 uM, 48 h) A549) was 53%; in data set [3], 48.2%; in the data set with Jurkat cells [5] (Homo sapiens, Jurkat, 48 h, CCK-8, read-out: % Viability (50 uM, 48 h) Jurkat), 43%. Besides, in the data set with NCI-60 cell line panel (10 μM), the “cytotoxic effect across the NCI-60 cell line panel” value is listed as “exhibits cytotoxic effects towards multiple cell lines of different cancer type”. In the data set with NCI-60 cell line panel (COL0205 (colon cancer), 10 μM), this compound came in with a lethality of 66.18%. In addition, the inhibition – broadly, the share of the control response that was lost under treatment – at 10 µM in the data set with NCI-60 cell line panel (Homo sapiens, HOP-62, HOP62 (NSCLC), read-out: growth inhibition) amounted to 50.2%. In addition, in the data set on Jurkat cells [5] (CCK-8, 50 µM), the “% Viability (50 uM, 48 h) Jurkat” value worked out at 43.26%.

Source of the values: patent US20250144069A1, “BILOBALIDE DERIVATIVE COMPOUNDS FOR TREATING NEUROLOGICAL DISEASES AND CANCERS” (The Chinese University of Hong Kong, priority 2023, published 2025).
